Source: patent publication US20240002351A1, “QUINAZOLIN-4-ONE AND THIENO[2,3-D]PYRIMIDIN-4-ONE INHIBITORS OF ERBB4 (HER4) FOR USE IN THE TREATMENT OF CANCER” (UNIVERSITEIT ANTWERPEN, priority 2021, published 2024)

How the values were obtained:
ERBB4 [1] = target: T1, ERBB4 (Homo sapiens, UniProt Q15303); experiment: PathHunter ERBB4/ERBB4 dimerization assay, dose-response curves; format: cell-based; details: U2OS ERBB4/ERBB4 dimerization cell line, 6 hours, compound alone; for Emax: NRG-1 = 100
T1 construct: host or cells: U2OS
T1 sequence (Q15303 26-1308): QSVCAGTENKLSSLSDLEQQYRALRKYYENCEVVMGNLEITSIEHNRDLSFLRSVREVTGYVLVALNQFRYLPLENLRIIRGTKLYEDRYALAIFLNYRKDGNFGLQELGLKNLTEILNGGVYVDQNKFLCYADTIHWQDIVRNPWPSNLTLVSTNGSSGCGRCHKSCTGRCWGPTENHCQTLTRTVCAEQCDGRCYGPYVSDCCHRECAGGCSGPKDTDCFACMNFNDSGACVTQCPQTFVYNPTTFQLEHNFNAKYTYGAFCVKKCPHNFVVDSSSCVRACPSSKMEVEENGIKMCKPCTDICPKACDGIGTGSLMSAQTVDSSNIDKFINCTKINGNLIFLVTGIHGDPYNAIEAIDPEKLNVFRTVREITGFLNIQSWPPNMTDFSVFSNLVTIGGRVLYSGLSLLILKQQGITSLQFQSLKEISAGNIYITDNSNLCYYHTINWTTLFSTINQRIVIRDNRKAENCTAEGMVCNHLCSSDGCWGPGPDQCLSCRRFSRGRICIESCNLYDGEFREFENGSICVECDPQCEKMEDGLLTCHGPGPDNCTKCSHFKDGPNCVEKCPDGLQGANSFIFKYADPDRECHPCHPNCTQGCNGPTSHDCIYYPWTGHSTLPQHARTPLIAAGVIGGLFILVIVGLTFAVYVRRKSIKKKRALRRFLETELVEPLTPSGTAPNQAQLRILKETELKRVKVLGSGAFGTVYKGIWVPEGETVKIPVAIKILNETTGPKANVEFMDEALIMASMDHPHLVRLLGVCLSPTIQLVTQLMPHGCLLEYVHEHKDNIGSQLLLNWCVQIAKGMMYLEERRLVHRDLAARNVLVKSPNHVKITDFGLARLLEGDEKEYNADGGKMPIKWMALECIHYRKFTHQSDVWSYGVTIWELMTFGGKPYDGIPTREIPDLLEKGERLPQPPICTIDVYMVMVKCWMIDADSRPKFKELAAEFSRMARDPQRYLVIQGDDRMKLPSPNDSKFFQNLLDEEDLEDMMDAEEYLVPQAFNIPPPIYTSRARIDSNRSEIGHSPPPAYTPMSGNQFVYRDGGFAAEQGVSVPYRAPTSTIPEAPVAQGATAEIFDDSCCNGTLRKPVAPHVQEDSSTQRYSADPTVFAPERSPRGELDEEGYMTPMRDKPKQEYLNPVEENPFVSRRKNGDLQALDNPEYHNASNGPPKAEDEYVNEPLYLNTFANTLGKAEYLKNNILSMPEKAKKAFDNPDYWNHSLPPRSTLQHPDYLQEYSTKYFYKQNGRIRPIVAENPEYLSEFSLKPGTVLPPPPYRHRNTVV
Protocol: (§1) Following 1-12 passages, U2OS ERBB4/ERBB4 dimerization cell line (Eurofins, 93-0961C3) were seeded at 10,000 cells/well in 100 μL cell plating reagent (Eurofins, 93-0563R0A) in white walled 96-well plates (PerkinElmer, 6005680) and incubated for 24h at 37° C. in humidified atmosphere of 5% CO2 in air. Cells were treated with 10 μL of compound (prepared at 11×, Enamine), 10 μM Heregulin-β1 (NRG-1) (DiscoverX, 92-1031 or Peprotech, 100-03) or PBS. […] Cells were subsequently incubated for 6 hours at 37° C., 5% CO2. Then 110 μL PathHunter Flash Detection Reagents (93-0247) were added to each well and cells were incubated at room temperature for 1 hour (covered from light). Afterwards luminescence signal was measured using the Luminoskan Ascent (Thermofisher). Dose response curves of the compounds were performed in 2-fold (0,0625 μM-32 μM).
From these curves, the EC50 and the Emax of the compounds was calculated.

EFO-21 cells = experiment: AK (adenylate kinase) toxicity assay; format: cell-based; details: 32 μM, 24 hours, EFO-21 cells (FIG. 3)
Protocol: EFO-21 cells were seeded at 10,000 cells/well in 100 μL cell medium in white walled 96-well plates (PerkinElmer, 6005680) and incubated overnight at 37° C. in humidified atmosphere of 5% CO2 in air. Next, cells were put on serum starved (SS) medium (0,1% FBS) overnight. Overnight cell cultures were then stimulated with PBS, compound (32 μM, Enamine) and/or NRG-1 (0.1 μM, Peprotech, 100-03) for 24 hours at 37° C. in humidified atmosphere of 5% CO2 in air. […] Next, 100 μL Toxilight AK detection reagent was added to each well and incubated at room temperature for 5 minutes. Luminescence was measured using the Luminoskan Ascent (Thermofisher).

ERBB4 [2] = target: T1, ERBB4; experiment: PathHunter ERBB4/ERBB4 dimerization assay, compounds on top of 0.1 μM NRG-1 (identification of modulators); format: cell-based; details: for EC50: on top of 0.1 μM NRG1; for Emax: on top of 0.1 μM NRG1, relative to NRG1 (set as 100%); for behaviour from the shape of the dose-response curves: on top of 0.1 μM neuregulin-1 (FIG. 1)
Protocol: as §1
Cells were treated with compound (prepared at 22×, 10 min pre-incubation) together with NRG-1 (0.1 μM final concentration, Peprotech, 100-03), or NRG-1 (0.1 μM final concentration) or PBS.
The EC50 and the Emax of the compounds on top of 0.1 μM NRG1 is depicted in Table 3 relative to NRG1 (set as 100%).

[3] = Metabolic stability, mouse liver microsomes; format: in vitro ADME
Protocol: (§2) A mixture of 713 μL milliQ water (Millipore, MA, USA), 200 μL 0.5 M phosphate buffer (pH 7.4, BD Diagnostic Systems, MD, USA), 50 μL NADPH regenerating system solution A (BD Biosciences, CA, USA), 10 μL NADPH regenerating system solution B (BD Biosciences, CA, USA) and 2 μL compound (5 mM in DMSO) was prepared and heated for 5 min at 37° C. Twenty-five μL of liver microsomes (0.5 mg protein/mL, Corning B.V. Life Sciences, Amsterdam, Netherlands) was added to the mixture and 20 μL samples were withdrawn at 0, 0.25, 0.5 and 1, 2, 4, 6 and 24 hours. Eighty μL (4×20 μL) of cold acetonitrile (Sigma-Aldrich, MO, USA) was added to the samples on ice for 10 min. Afterwards, the mixtures were centrifuged at 13,000 rpm for 5 min at 4° C. Seventy-five μL of an acetonitrile/water (10/90) mixture was added to 25 μL supernatant and the obtained samples were analyzed by LC-MS/MS (Waters Acquity H-class UPLC system with ion trap mass spectrometer, Bruker Daltonics Esquire 3000 plus, and Agilent 1100 Series LC system) in triplicate.

Chemical stability = format: physicochemical; details: 37° C. and pH 7.4 for 24 hours (FIG. 11)
Protocol: A 10 μL aliquot of compound solution (10 mM in DMSO) was added to 990 μL DMSO (100 μM) and further diluted with […] to a stock solution of 500 nM. The mixture was incubated at 37° C. Aliquots of 100 μL were taken at various time points (0, 0.5, 1, 2, 3, 6 and 24 hrs) and analyzed with LC-MS/MS (Waters Acquity H-class UPLC system with ion trap mass spectrometer, Bruker Daltonics Esquire 3000 plus, and Agilent 1100 Series LC system). Samples were analyzed in triplicate and plotted against a standard curve; compound at 31-500 nM in buffer solution of pH 7.4 (10 mM Potassium Phosphate, BD Gentest).

[4] = Plasma stability, human plasma; format: in vitro ADME; details: 50 μM, 37° C., over 6 hours (FIG. 12)
Protocol: (§3) A 5 μL aliquot of compound solution (10 mM in DMSO) was added to 995 μL of Non Swiss Albino Mouse Plasma (DivBioScience, Breda, Netherlands) or Pooled Normal Human plasma in sodium citrate to obtain a final concentration of 50 μM compound in plasma. The mixture was gently shaken for 6 hours at 37° C. Aliquots of 100 μL were taken at various time points (0, 0.5, 1, 2 and 6 hrs.) and diluted with 400 μL of cold acetonitrile (Sigma-Aldrich, stored at 4° C.). The suspension was centrifuged at 14000 rpm for 5 min. Thereafter, 50 μL of the supernatant was diluted with 950 μL of acetonitrile and analyzed with LC-MS/MS (Waters Acquity H-class UPLC system with ion trap mass spectrometer, Bruker Daltonics Esquire 3000 plus, and Agilent 1100 Series LC system). Samples were analyzed in triplicate and plotted against a standard curve (compound at 3.12-100 μM in plasma and diluted in acetonitrile as described above).

[5] = Plasma stability, mouse plasma; format: in vitro ADME; details: 50 μM, 37° C., over 6 hours (FIG. 12)
Protocol: as §3

[6] = Metabolic stability, human liver microsomes; format: in vitro ADME
Protocol: as §2

[7] = Solubility in PBS (absorbance); format: physicochemical; details: aqueous buffer, kinetic from dmso stock, 37° C., 2 hours (FIG. 10), read-out: solubility: concentration at which easily soluble
Protocol: A dilution series (0.16, 0.31, 0.62, 1.25, 2.5 and 5 mM) was made starting with a compound stock solution of 10 mM in DMSO. Aliquot of 4 μL was taken out of every dilution and added to 196 μL PBS in a 96-well plate. The plate was shaken for 10 seconds, incubated at 37° C. for 2 hours and thereafter absorbance was measured. Samples were analyzed in duplicate.

[8] = system: Human atrial cardiac fibroblasts (HCF); experiment: In vitro fibrosis assay, TGFβ-stimulated HCF (qRT-PCR); format: cell-based; details: TGFβ 10 ng/mL, 24 hours (FIG. 9)
Protocol: Human dermal fibroblasts (HDF, Cell applications, 106-05A) were cultured in Dulbecco's modified Eagle's medium (DMEM, ThermoFisher Scientific, 11995065) supplemented with 10% (v/v) heat-inactivated fetal bovine serum (FBS, ThermoFisher Scientific, 10082147), 1% penicillin/streptomycin and 1 mL polymyxin B and were maintained at 37° C. in humidified atmosphere of 5% CO2 in air. Human atrial cardiac fibroblasts (HCF, Innoprot, P10454) were cultured in fibroblast medium (Innoprot, P60108) supplemented with fetal bovine serum, fibroblast growth supplement and penicillin/streptomycin and were maintained at 37° C. in humidified atmosphere of 5% CO2 in air.
Following 1-9 passages, HDF and HCF were seeded at 0.3×10^6 cells/well in 1 mL cell medium in 12-well plates and incubated overnight at 37° C. in humidified atmosphere of 5% CO2 in air. Next, cells were put on serum starved medium (0.1% FBS) for 8 hours and then stimulated for 24 hours with either PBS, active compound (4-32 μM) or non-active compound (NA1, NA2; 4-32 μM) on top of TGFβ (10 ng/mL, Peprotech, 100-21). […] Next, cells were lysed using 100 μL lysis buffer RA1 (of RNA isolation kit below) supplemented with β-mercapto-ethanol (100:1), scraped with a cell scraper and transferred to centrifuge tubes to be stored at −20° C. for a maximum of 2 weeks before RNA isolation.
RNA was extracted using Nucleospin RNA XS (Machery Nagel) according to the manufacturer's instructions. For cDNA synthesis, total RNA was added to a solution containing buffer with random hexamers and reverse transcriptase enzyme. The PCR was performed using the following parameters: 10 minutes at 25° C., 30 minutes at 48° C., 5 minutes at 95° C. RT-qPCR on the cDNA samples was performed using Taqman Universal PCR Master Mix (Applied Biosystems) and Taqman primers according to the manufacturer's instructions. […] Expression levels were calculated using the comparative cycle method and expressed as fold change to appropriate (background) control. […]

Row | SMILES | EC50 (ERBB4 [1]) [µM] | Emax (ERBB4 [1]) [%] | toxicity (AK release) (EFO-21 cells) | EC50 (ERBB4 [2]) [µM] | Emax (ERBB4 [2]) [%] | behaviour from the shape of the dose-response curves (ERBB4 [2]) | t1/2 mouse ([3]; mouse liver microsomes) [min] | half-life at 10 µM ([3]; mouse, liver microsomes, pH 7.4, mouse liver microsomes, read-out: t1/2 mouse) [min] | chemical stability (Chemical stability) | plasma stability, human plasma [4] | plasma stability, mouse plasma [5] | t1/2 human ([6]; human liver microsomes) [min] | half-life at 10 µM ([6]; human, liver microsomes, pH 7.4, human liver microsomes, read-out: t1/2 human) [min] | solubility at 2 h [7] [µM] | col1a1 levels in comparison with TGFβ control [8]
1 | O=C1NCCCCC1Sc1nc2sc3c(c2c(=O)n1C1CCCC1)CCCC3 (stereo not drawn) [Compound 5] | 6.11 | 17.7 ± 3.45 | limited toxicity | ~3.36 | 63 ± 14 | partial agonists or allosteric agonists functioning as partial agonists | – | – | – | – | – | – | – | – | –
2 | CC(=O)c1ccc(NC(=O)C(C)Sc2nc3ccccc3c(=O)n2C2CCCC2)cc1 (stereo not drawn) [Compound 2] | 10.9 | 9.48 ± 2.13 | – | – | 126 ± 36 | weak or silent allosteric modulators | – | – | – | – | – | – | – | – | –
3 | CC(C)n1c(SC(C(=O)NC2CC2)c2ccccc2)nc2sc3c(c2c1=O)CCC3 (stereo not drawn) [Compound 4] | 7.54 | 16.9 ± 3.69 | – | ~21.5 | 192 ± 34 | ago-allosteric modulators | 12 | 8 to 12 | chemically stable | stable | stable | 18 | 17 to 18 | < 25 | –
4 | CC(Sc1nc2ccccc2c(=O)n1C1CCCC1)C(=O)N(C)c1ccccc1 (stereo not drawn) [Compound 3] | 15.8 | 14.3 ± 2.63 | limited toxicity | – | 36 ± 13 | partial agonists or allosteric agonists functioning as partial agonists | – | – | – | – | – | – | – | – | significantly decrease col1a1 levels
5 | Cc1sc2cc(SCC(=O)NC(C)(C#N)C(C)C)n(C3CCCC3)c(=O)c2c1C (stereo not drawn) [Compound 8] | 20.4 | 18.4 ± 3.47 | – | – | 174 ± 38 | ago-allosteric modulators | – | – | – | – | – | – | – | – | –
